The values that follow come from ChEMBL document CHEMBL1145970 (J Med Chem, 2003).

pKi: −log10 of the molar value. Active and inactive are the calls of the source. The rule behind the calls is not given here.

Sequence of 5-hydroxytryptamine receptor 2A (P14842 whole entry): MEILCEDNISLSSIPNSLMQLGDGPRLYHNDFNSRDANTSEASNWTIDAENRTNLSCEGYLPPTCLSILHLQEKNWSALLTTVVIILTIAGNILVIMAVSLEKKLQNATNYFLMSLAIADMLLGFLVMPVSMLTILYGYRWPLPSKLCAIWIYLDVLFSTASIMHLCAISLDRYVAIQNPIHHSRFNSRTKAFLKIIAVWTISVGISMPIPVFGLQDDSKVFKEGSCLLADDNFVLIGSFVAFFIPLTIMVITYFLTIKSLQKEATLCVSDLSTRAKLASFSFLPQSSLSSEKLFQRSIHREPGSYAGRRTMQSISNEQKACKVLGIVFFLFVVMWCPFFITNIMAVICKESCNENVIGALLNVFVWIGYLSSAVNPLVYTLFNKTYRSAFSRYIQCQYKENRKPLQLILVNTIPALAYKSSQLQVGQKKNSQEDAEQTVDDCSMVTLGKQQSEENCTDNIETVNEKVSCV

The subject of one assay is 5-hydroxytryptamine receptor 7 (Cavia porcellus). Put plainly: Maximal relaxation effect induced by 3 uM compound on substance P stimulated guinea pig ileum with 5-hydroxytryptamine 7 receptor desensitization.
Settings: not given
As for `O=C(CCCCCN1CCN(c2noc3ccccc23)CC1)c1ccccc1O`, the Relaxation entry is “inactive”.

The next assay addresses 5-hydroxytryptamine receptor 2A (Rattus norvegicus, UniProt P14842). Briefly: Binding affinity of compound was tested for 5-hydroxytryptamine 2A receptor.
Settings: not given
A word on the pKi: it is the negative decadic logarithm of the Ki, by convention in mol/L. A high value points to a small Ki. Regarding `COc1ccccc1C(=O)CCCCCN1CCN(c2noc3ccccc23)CC1`, the pKi is 8.04.
Still for that read-out and setting: the value for `O=C(CCCCCN1CCN(c2noc3ccccc23)CC1)c1ccccc1O` was 8.10.

The target in a further assay is 5-hydroxytryptamine receptor 7 (Rattus norvegicus, UniProt P32305). Briefly: Binding affinity to the rat 5-hydroxytryptamine 7 receptor.
Sequence of 5-hydroxytryptamine receptor 7 (P32305 whole entry): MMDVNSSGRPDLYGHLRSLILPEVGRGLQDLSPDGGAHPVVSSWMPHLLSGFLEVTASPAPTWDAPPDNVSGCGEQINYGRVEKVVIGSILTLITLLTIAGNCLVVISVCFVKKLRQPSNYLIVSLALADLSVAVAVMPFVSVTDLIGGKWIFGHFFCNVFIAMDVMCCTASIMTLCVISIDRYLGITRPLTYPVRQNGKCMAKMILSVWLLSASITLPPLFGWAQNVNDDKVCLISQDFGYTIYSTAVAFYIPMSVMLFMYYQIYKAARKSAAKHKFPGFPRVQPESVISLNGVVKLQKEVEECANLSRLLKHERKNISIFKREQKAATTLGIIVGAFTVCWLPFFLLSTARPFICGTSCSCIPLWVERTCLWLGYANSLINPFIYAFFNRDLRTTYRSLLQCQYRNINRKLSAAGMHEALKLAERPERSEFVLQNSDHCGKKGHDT
Settings: not given
As for `COc1ccccc1N1CCN(CCCCCC(=O)c2ccc(O)cc2)CC1`, the pKi is 7.63.
The same measure, in the same setting: the value for `O=C(CCCCCN1CCN(c2cccc(C(F)(F)F)c2)CC1)c1ccccc1O` was 6.42.
Compound `COc1cccc(C(=O)CCCCCN2CCN(c3ccccc3OC)CC2)c1` had a pKi of 7.34.
Same read-out and setting: the value for `COc1ccccc1N1CCN(CCCCCC(=O)c2ccccc2)CC1` was 7.55; that for `COc1cccc(C(=O)CCCCN2CCN(c3ccccc3OC)CC2)c1` was 7.07.
On the same count and under the same terms, the same measure for `O=C(CCCCCN1CCN(c2ccccn2)CC1)c1ccccc1O`: 6.98.
Same read-out and setting: the value for `O=C(CCCCCN1CCN(C2CCCCC2)CC1)c1ccccc1O` was below 6.10.
As for `COc1ccccc1N1CCN(CCCCC(=O)c2cccc(O)c2)CC1`, the pKi was 7.82.
Same read-out and setting: the value for `COc1ccccc1N1CCN(CCCCCC(=O)c2cccc(O)c2)CC1` was 7.57.
The same measure, in the same setting: the value for `COc1ccccc1N1CCN(CCCCC(=O)c2ccccc2)CC1` was 7.36; that for `COc1ccccc1N1CCN(CCCCC(=O)c2ccc(O)cc2)CC1` was 7.23.
Same read-out and setting: the same measure for `CN1CCN(CCCCCC(=O)c2ccccc2O)CC1`: below 6.00.
In turn, `COc1ccccc1N1CCN(CCCCC(=O)c2ccccc2O)CC1` had a negative logarithm of the Ki (pKi) of 7.79.
On the same count and under the same terms, the value for `NCCc1c[nH]c2ccc(C(N)=O)cc12` was 9.29.
Same read-out and setting: the same measure for `COc1ccc2onc(N3CCN(CCCCCC(=O)c4ccccc4O)CC3)c2c1`: 6.34; for `O=C(CCCCN1CCN(c2noc3ccccc23)CC1)c1ccccc1O`: 7.28.
The same measure, in the same setting: the value for `COc1ccccc1C(=O)CCCCCN1CCN(c2noc3ccccc23)CC1` was 9.05; that for `O=C(CCCCCN1CCN(c2nc3ccccc3o2)CC1)c1ccccc1O` was 6.83; that for `COc1ccccc1N1CCN(CCCCCC(=O)c2ccccc2O)CC1` was 8.24.
Take `O=C(CCCN1CCN(c2noc3ccccc23)CC1)c1ccccc1O`: the pKi was 7.71.
Still for that read-out and setting: the value for `O=C(CCCCCN1CCN(c2ccccc2)CC1)c1ccccc1O` was 7.37; that for `O=C(CCCCCN1CCN(c2noc3ccccc23)CC1)c1ccccc1O` was 8.53.
On the same count and under the same terms, the value for `COc1cccc(C(=O)CCCN2CCN(c3ccccc3OC)CC2)c1` was 6.96.
On the same count and under the same terms, the value for `O=C(CCCCCN1CCN(c2nc3ccccc3[nH]2)CC1)c1ccccc1O` was 6.17.

A further assay addresses 5-hydroxytryptamine receptor 7 (Rattus norvegicus) (UniProt P32305).
Assay: not given
To be noted: Ileum.
In the case of `NCCc1c[nH]c2ccc(C(N)=O)cc12`, the Relaxation result was “inactive”.

Another assay has as its system 5-hydroxytryptamine receptor 7 (Cavia porcellus). Briefly: Maximal relaxation effect induced by 3 uM compound on substance P stimulated guinea pig ileum with 5-hydroxytryptamine 7 receptor nondesensitization.
Settings: not given
As to `O=C(CCCCCN1CCN(c2noc3ccccc23)CC1)c1ccccc1O`, the Relaxation was 43%.

Another assay deals with T1, 5-hydroxytryptamine receptor 1A (Rattus norvegicus, UniProt P19327).
T1 sequence (P19327 whole entry): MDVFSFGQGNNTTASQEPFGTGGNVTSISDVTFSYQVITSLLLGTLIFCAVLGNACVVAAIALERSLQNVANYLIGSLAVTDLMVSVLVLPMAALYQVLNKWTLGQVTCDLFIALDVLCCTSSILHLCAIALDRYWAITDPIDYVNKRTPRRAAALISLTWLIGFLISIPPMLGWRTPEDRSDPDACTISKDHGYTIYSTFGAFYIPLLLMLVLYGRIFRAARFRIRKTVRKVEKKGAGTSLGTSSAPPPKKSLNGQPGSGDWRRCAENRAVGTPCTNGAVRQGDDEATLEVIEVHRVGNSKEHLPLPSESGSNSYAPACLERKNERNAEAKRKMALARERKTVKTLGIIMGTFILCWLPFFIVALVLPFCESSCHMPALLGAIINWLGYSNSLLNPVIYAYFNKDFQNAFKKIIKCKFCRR
Put plainly: Binding affinity to the rat 5-hydroxytryptamine 1A receptor.
Settings: not given
In turn, `COc1ccccc1N1CCN(CCCCCC(=O)c2ccc(O)cc2)CC1` had a pKi of 7.85.
The same measure, in the same setting: the same measure for `O=C(CCCCCN1CCN(c2cccc(C(F)(F)F)c2)CC1)c1ccccc1O`: 6.55.
Still for that read-out and setting: the value for `COc1cccc(C(=O)CCCCCN2CCN(c3ccccc3OC)CC2)c1` was 8.47; that for `COc1ccccc1N1CCN(CCCCCC(=O)c2ccccc2)CC1` was 8.19; that for `COc1cccc(C(=O)CCCCN2CCN(c3ccccc3OC)CC2)c1` was 8.47.
The same measure, in the same setting: the value for `O=C(CCCCCN1CCN(c2ccccn2)CC1)c1ccccc1O` was 7.25.
Regarding `O=C(CCCCCN1CCN(C2CCCCC2)CC1)c1ccccc1O`, the negative-log Ki (pKi) is below 6.07.
Still for that read-out and setting: the value for `COc1ccccc1N1CCN(CCCCC(=O)c2cccc(O)c2)CC1` was 8.43; that for `COc1ccccc1N1CCN(CCCCCC(=O)c2cccc(O)c2)CC1` was 7.62; that for `COc1ccccc1N1CCN(CCCCC(=O)c2ccccc2)CC1` was 8.15.
The same measure, in the same setting: the value for `COc1ccccc1N1CCN(CCCCC(=O)c2ccc(O)cc2)CC1` was 7.70; that for `CN1CCN(CCCCCC(=O)c2ccccc2O)CC1` was below 6.07; that for `COc1ccccc1N1CCN(CCCCC(=O)c2ccccc2O)CC1` was 8.39.
Same read-out and setting: the value for `COc1ccc2onc(N3CCN(CCCCCC(=O)c4ccccc4O)CC3)c2c1` was 6.41.
`O=C(CCCCN1CCN(c2noc3ccccc23)CC1)c1ccccc1O` showed a pKi of 6.04.
The same measure, in the same setting: the same measure for `COc1ccccc1C(=O)CCCCCN1CCN(c2noc3ccccc23)CC1`: 6.76; for `O=C(CCCCCN1CCN(c2nc3ccccc3o2)CC1)c1ccccc1O`: 5.84.
For the compound `COc1ccccc1N1CCN(CCCCCC(=O)c2ccccc2O)CC1`, the pKi is 8.24.
`O=C(CCCN1CCN(c2noc3ccccc23)CC1)c1ccccc1O` showed a pKi of 5.97.
Same read-out and setting: the value for `O=C(CCCCCN1CCN(c2ccccc2)CC1)c1ccccc1O` was 6.86.
Still for that read-out and setting: the value for `O=C(CCCCCN1CCN(c2noc3ccccc23)CC1)c1ccccc1O` was 6.72; that for `COc1cccc(C(=O)CCCN2CCN(c3ccccc3OC)CC2)c1` was 9.11; that for `O=C(CCCCCN1CCN(c2nc3ccccc3[nH]2)CC1)c1ccccc1O` was below 6.07.

For a further assay, the target named is D(2) dopamine receptor (Homo sapiens, UniProt P14416). Briefly: Binding affinity of compound was tested for Dopamine receptor D2L.
Sequence of D(2) dopamine receptor (P14416 whole entry): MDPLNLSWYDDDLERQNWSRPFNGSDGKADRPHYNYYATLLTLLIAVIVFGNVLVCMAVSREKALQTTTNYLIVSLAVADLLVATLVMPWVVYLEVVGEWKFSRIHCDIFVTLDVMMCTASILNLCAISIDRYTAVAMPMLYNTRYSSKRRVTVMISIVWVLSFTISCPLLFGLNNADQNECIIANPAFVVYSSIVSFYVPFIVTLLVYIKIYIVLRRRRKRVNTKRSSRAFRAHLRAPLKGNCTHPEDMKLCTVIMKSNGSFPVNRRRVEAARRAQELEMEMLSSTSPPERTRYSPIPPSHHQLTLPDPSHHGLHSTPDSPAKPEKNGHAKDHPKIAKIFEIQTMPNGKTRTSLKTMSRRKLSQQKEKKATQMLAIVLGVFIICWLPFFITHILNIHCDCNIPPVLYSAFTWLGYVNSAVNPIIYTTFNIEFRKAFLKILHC
Settings: not given
Compound `COc1ccccc1C(=O)CCCCCN1CCN(c2noc3ccccc23)CC1` showed a pKi of 7.11.
On the same count and under the same terms, the same measure for `O=C(CCCCCN1CCN(c2noc3ccccc23)CC1)c1ccccc1O`: 6.61.

For a further assay, the target named is D(3) dopamine receptor (Rattus norvegicus, UniProt P19020). Put plainly: Binding affinity of compound was tested for Dopamine receptor D3.
Sequence of D(3) dopamine receptor (P19020 whole entry): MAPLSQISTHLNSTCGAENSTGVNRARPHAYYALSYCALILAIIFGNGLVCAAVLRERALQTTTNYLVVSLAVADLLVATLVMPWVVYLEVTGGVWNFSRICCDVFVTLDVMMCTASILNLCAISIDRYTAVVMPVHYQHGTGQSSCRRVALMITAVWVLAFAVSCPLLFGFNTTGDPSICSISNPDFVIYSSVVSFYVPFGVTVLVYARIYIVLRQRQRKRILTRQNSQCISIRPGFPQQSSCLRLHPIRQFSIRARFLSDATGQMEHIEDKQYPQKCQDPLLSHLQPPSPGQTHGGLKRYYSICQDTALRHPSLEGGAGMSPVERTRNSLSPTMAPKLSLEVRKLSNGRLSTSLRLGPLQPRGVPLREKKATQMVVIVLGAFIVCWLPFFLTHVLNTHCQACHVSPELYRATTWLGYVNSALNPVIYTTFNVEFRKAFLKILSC
Settings: not given
In the case of `COc1ccccc1C(=O)CCCCCN1CCN(c2noc3ccccc23)CC1`, the pKi was 7.26.
The same measure, in the same setting: the same measure for `O=C(CCCCCN1CCN(c2noc3ccccc23)CC1)c1ccccc1O`: 6.44.

The target of another assay is T2, D(4) dopamine receptor (Homo sapiens, UniProt P21917).
T2 sequence (P21917 whole entry): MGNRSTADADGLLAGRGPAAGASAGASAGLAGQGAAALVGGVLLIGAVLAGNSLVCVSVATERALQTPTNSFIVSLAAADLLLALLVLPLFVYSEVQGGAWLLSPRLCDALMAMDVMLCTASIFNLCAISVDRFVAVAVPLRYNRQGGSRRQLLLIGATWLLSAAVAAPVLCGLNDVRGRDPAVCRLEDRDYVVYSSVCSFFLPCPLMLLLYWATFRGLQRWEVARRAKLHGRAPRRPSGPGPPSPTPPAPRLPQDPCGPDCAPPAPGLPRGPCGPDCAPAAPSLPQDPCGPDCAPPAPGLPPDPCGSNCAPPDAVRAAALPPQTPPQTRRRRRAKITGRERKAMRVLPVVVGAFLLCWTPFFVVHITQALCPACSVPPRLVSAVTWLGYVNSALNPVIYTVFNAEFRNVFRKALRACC
Put plainly: Binding affinity of compound was tested for Dopamine receptor D4.
Settings: not given
Compound `COc1ccccc1C(=O)CCCCCN1CCN(c2noc3ccccc23)CC1` gave a pKi of 8.40.
The same measure, in the same setting: the value for `O=C(CCCCCN1CCN(c2noc3ccccc23)CC1)c1ccccc1O` was 6.50.

A further assay deals with T3, Adrenergic receptor alpha-1 (Rattus norvegicus, UniProt P15823+P23944+P43140).
T3 sequence (P15823 whole entry): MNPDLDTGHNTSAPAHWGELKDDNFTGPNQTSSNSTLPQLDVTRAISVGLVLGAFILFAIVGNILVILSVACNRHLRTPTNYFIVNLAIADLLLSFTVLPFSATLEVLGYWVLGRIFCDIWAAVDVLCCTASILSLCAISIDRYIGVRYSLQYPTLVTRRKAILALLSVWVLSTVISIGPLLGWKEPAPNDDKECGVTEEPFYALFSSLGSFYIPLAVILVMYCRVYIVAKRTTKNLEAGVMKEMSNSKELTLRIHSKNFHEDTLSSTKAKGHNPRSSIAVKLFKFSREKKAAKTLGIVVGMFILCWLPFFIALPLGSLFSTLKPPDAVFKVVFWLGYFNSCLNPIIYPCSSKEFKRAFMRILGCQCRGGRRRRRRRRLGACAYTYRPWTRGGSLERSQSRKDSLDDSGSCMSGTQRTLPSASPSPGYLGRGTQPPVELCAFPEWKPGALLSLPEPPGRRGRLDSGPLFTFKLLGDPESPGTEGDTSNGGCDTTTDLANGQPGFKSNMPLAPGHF
T3 sequence (P23944 whole entry): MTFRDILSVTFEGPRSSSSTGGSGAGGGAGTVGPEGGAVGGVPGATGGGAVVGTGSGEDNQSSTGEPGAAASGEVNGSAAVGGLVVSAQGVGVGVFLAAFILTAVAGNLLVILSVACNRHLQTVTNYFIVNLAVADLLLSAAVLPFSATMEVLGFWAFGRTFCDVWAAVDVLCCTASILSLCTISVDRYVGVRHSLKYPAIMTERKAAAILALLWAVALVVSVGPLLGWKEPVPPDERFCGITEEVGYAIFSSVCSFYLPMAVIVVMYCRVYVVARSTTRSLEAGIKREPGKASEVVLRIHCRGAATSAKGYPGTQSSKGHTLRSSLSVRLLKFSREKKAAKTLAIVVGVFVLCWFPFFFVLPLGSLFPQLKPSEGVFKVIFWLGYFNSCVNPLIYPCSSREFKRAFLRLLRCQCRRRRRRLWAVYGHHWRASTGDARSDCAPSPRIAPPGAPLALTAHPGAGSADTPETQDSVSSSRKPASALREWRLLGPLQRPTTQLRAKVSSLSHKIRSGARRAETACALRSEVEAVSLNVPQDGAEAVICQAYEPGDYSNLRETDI
T3 sequence (P43140 whole entry): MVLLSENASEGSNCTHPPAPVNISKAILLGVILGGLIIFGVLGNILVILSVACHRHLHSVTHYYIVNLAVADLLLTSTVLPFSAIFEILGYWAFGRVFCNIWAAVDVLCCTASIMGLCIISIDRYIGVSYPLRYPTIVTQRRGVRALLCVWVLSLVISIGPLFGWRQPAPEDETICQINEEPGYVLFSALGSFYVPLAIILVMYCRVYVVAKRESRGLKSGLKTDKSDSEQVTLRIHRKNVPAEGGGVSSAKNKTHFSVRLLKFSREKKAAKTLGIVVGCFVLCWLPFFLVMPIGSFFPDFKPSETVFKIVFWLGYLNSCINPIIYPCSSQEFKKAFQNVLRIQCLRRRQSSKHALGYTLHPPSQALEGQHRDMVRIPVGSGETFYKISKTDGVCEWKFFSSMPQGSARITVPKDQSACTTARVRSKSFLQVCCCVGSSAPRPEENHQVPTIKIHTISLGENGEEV
Put plainly: Binding affinity of compound was tested for Alpha-1 adrenergic receptor. It counts as protein assay.
Settings: not given
Broadly, the Ki is the equilibrium dissociation constant of an inhibitor or competing ligand from its target. A low value points to a stronger hold on the target. As for `COc1ccccc1C(=O)CCCCCN1CCN(c2noc3ccccc23)CC1`, the Ki turned out to be 0.41 nM.
On the same count and under the same terms, the same measure for `O=C(CCCCCN1CCN(c2noc3ccccc23)CC1)c1ccccc1O`: 96 nM.

In another assay the target is 5-hydroxytryptamine receptor 7 (Rattus norvegicus) (UniProt P32305).
Sequence of 5-hydroxytryptamine receptor 7 (Rattus norvegicus) (P32305 whole entry): as the sequence (P32305 whole entry) above
Assay: not given
To be noted: Ileum. The source holds these as a separate data set.
Take `COc1ccccc1C(=O)CCCCCN1CCN(c2noc3ccccc23)CC1`: the Relaxation entry is “inactive”.
